# Assay results: patent US20260048051A1, “TREATMENT OF INFLAMMATORY BOWEL DISEASE” (Atomwise Inc., priority 2024, published 2026)
# Where two headings read alike, the source gives them in different places.
# Assay: Plasma and tissue distribution in SD rats
# Assay type: in vivo
# Details: for Tissue/Plasma Ratio (AUCinf) / Kp: SD rat; for Kp / AUC(0-t): rat; for Kp: oral, read-out: Tissue/Plasma Ratio (AUCinf); for AUC(0-t): read-out: AUClast; for AUC0-inf: read-out: AUCINF_obs
# Source text: The following Example describes the methods and data used to evaluate the tissue distribution of TYK2 inhibitors following the administration of either compound 1 or compound 2.
# Thirty (30, 15/sex) SD rats supplied by Beijing Vital River Laboratory Animal Technology Co., Ltd. were used in this study. The animals were confirmed to be healthy before being assigned to the study. The room (s) was controlled and monitored for relative humidity (targeted mean range 40% to 70%) and temperature (targeted mean range 20° C. to 26° C.) with 15 or above air changes/hour. The room was on a 12-hour light/dark cycle except when interruptions were necessitated by study activities. Fresh drinking water (reverses osmosis) was available to all animals, ad libitum. Certified animal diet from certified vendor was available to all animals, ad libitum.
# Animals were weighed prior to dose administration to calculate the actual dose volume. The body weights were in the range from 245.39 to 276.33 g for males and 182.29 to 215.69 g for females on the first dosing day. The animals in Groups 1 and 2 received a single oral gavage administration of test compound 1. Cage-side observations for the general health condition and appearance of the animal were performed before and after dosing and at each time point of sample collection. Unusual observations were recorded throughout the duration of the study.
# The vehicle was 0.5% methyl cellulose (4000 cps) in water. The formulation was prepared according to the following steps. Group 1: 25.95 mg of compound 1 was weighed into a glass vial. 5000 μL of vehicle was added into the vial and stirred for 30 min at 1700 rpm to get a homogenous opaque suspension. 5000 μL of vehicle was added into the vial and stirred for 10 min at 1700 rpm to get a homogenous opaque suspension. 5000 μL+5000 μL+5000 μL+924 μL of vehicle was added into the vial and stirred for 10 min at 1700 rpm to get a homogenous opaque suspension. Group 2: 81.66 mg of compound 1 was weighed into a glass vial. 5000 μL of vehicle was added into the vial and stirred for 30 min at 1700 rpm to get a homogenous opaque suspension. 5000 μL of vehicle was added into the vial and stirred for 10 min at 1700 rpm to get a homogenous opaque suspension. 10 mL+10 mL+10 mL+20 mL+10 mL+10 mL+1580 μL of vehicle was added into the vial and stirred for 10 min at 1700 rpm to get a homogenous opaque suspension.
# Blood (about 0.2 mL) was collected at each time point via jugular vein puncture from each study animal. The actual time for each sample collection was recorded. The acceptable deviations on sampling time were ±1 min for the time points pre-dose through 1 hour post-dose, and +5% of the nominal time for time points after 1 hour post-dose.
# All blood samples were transferred into commercial tubes containing K2-EDTA. After blood was collected, the samples were placed on wet ice and processed for plasma within 60 minutes of collection by centrifugation at approximately 4° C., 3200×g for 10 minutes, and then quickly frozen over dry ice and kept at −60° C. or lower until LC-MS/MS analysis.
# Following terminal blood sample collection, animals were conducted CO2 euthanasia, the chest and abdominal cavities were opened carefully lengthwise using scissors to expose the internal organs in preparation of tissue perfusion. A needle was used to puncture a small hole into the left ventricle of the heart, and then clamped with a hemostat. […] Fluid (cold 1×PBS) was infused until the liver pales (typically 2-3 minutes). Following perfusion, 14 kinds of tissues (spleen, bone marrow, adipose, brain, heart, kidney, liver, lung, skin, small intestine, large intestine, eye, gonads, and bladder) were collected from each animal, respectively.
# Each tissue was weighed and homogenized on wet ice using homogenizing buffer (MeOH/15 mM PBS 1:2) at the ratio of 1:9 (1 g tissue with 9 mL buffer). The tissue homogenate was kept at −60° C. or lower until LC-MS/MS analysis. […]
# [1] = female, Sprague-Dawley (SD), large intestine, F SD rat, L. Intestine
# [2] = female, Sprague-Dawley (SD), F SD rat, Bone Marrow
# [3] = female, Sprague-Dawley (SD), F SD rat, Brain
# [4] = female, Sprague-Dawley (SD), F SD rat, Eye
# [5] = female, Sprague-Dawley (SD), F SD rat, Heart
# [6] = female, Sprague-Dawley (SD), F SD rat, Kidney
# [7] = female, Sprague-Dawley, F SD rat, Adipose
# [8] = female, Sprague-Dawley, F SD rat, Bladder
# [9] = female, Sprague-Dawley, F SD rat, Spleen
# [10] = female, small intestine, F SD rat, S. Intestine
# [11] = male, Sprague-Dawley (SD), large intestine, M SD rat, L. Intestine
# [12] = male, Sprague-Dawley (SD), M SD rat, Brain
# [13] = male, Sprague-Dawley (SD), M SD rat, Eye
# [14] = male, Sprague-Dawley (SD), M SD rat, Heart
# [15] = male, Sprague-Dawley (SD), M SD rat, Kidney
# [16] = male, Sprague-Dawley, M SD rat, Adipose
# [17] = male, Sprague-Dawley, M SD rat, Bladder
# [18] = male, Sprague-Dawley, M SD rat, Skin
# [19] = male, Sprague-Dawley, M SD rat, Spleen
# [20] = male, Sprague-Dawley, M SD rat, Testis
# [21] = male, small intestine, M SD rat, S. Intestine
compound,measurement,setting,value
"C[C@@H](c1ccc(Nc2cc(Nc3ncc(F)cc3S(C)(=O)=O)ncn2)nc1)N1CC2(COC2)C1 [Compound 2, (S)—N^4-(5-(1-(2-oxa-6-azaspiro[3.3]heptan-6-yl)ethyl)pyridin-2-yl)-N^6-(5-fluoro-3-(methylsulfonyl)pyridin-2-yl)pyrimidine-4,6-diamine]",HL_Lambda_z,"F SD rat, Adipose",2.78 h
same,HL_Lambda_z,"F SD rat, Bladder",2.37 h
same,HL_Lambda_z,"F SD rat, Bone Marrow",2.26 h
same,HL_Lambda_z,"F SD rat, Eye",6.23 h
same,HL_Lambda_z,"F SD rat, Kidney",2.34 h
same,HL_Lambda_z,"F SD rat, L. Intestine",4.97 h
same,HL_Lambda_z,"F SD rat, Liver",2.31 h
same,HL_Lambda_z,"F SD rat, Lung",2.26 h
same,HL_Lambda_z,"F SD rat, Plasma",3.20 h
same,HL_Lambda_z,"F SD rat, S. Intestine",2.06 h
same,HL_Lambda_z,"F SD rat, Skin",5.71 h
same,HL_Lambda_z,"F SD rat, Spleen",2.29 h
same,HL_Lambda_z,"M SD rat, Bladder",2.13 h
same,HL_Lambda_z,"M SD rat, Kidney",3.28 h
same,HL_Lambda_z,"M SD rat, Plasma",2.21 h
same,HL_Lambda_z,"M SD rat, S. Intestine",2.05 h
same,HL_Lambda_z,"M SD rat, Skin",2.43 h
same,HL_Lambda_z,"M SD rat, Spleen",2.24 h
same,Tissue/Plasma Ratio (AUCinf),Kidney,13
same,Tissue/Plasma Ratio (AUCinf),Large Intestine,23
same,Kp,"Sprague-Dawley (SD), bone marrow / plasma, Bone Marrow",9.6
same,Kp,"Sprague-Dawley, adipose, Adipose",4.5
same,Kp,"Sprague-Dawley, bladder, Bladder",8.7
same,Kp,"Sprague-Dawley, eye, Eye",1.2
same,Kp,"Sprague-Dawley, kidney, Kidney",~13
same,Kp,"Sprague-Dawley, large intestine, Large Intestine",~23
same,Kp,"Sprague-Dawley, liver, Liver",8.7
same,Kp,"Sprague-Dawley, lung, Lung",7.1
same,Kp,"Sprague-Dawley, skin, Skin",2.5
same,Kp,"Sprague-Dawley, small intestine, Small Intestine",27
same,Kp,"Sprague-Dawley, spleen, Spleen",12
same,AUC(0-t),"female, SD, bone marrow, F SD rat, Bone Marrow",38700 ng·h/mL
same,AUC(0-t),"female, SD, lung, F SD rat, Lung",29400 ng·h/mL
same,AUC(0-t),"female, SD, ovaries, F SD rat, Ovaries",4360 ng·h/mL
same,AUC(0-t),"female, SD, plasma, F SD rat, Plasma",4120 ng·h/mL
same,AUC(0-t),"female, SD, skin, F SD rat, Skin",8430 ng·h/mL
same,AUC(0-t),"female, SD, small intestine, F SD rat, S. Intestine",110000 ng·h/mL
same,Tmax,[1],120 min
same,AUC(0-t),"female, Sprague-Dawley (SD), eye, F SD rat, Eye",4880 ng·h/mL
same,AUC(0-t),"female, Sprague-Dawley (SD), heart, F SD rat, Heart",8990 ng·h/mL
same,AUC(0-t),"female, Sprague-Dawley (SD), kidney, F SD rat, Kidney",51800 ng·h/mL
same,AUC(0-t),[1],95000 ng·h/mL
same,Cmax,[2],3080 ng/mL
same,Tmax,[2],30 min
same,AUC0-inf,[2],38300 ng·h/mL
same,Cmax,[3],104 ng/mL
same,Tmax,[3],30 min
same,Cmax,[4],700 ng/mL
same,Tmax,[4],30 min
same,AUC0-inf,[4],4910 ng·h/mL
same,Cmax,[5],2500 ng/mL
same,Tmax,[5],30 min
same,Cmax,[6],9870 ng/mL
same,Tmax,[6],30 min
same,AUC0-inf,[6],51800 ng·h/mL
same,AUC(0-t),"female, Sprague-Dawley, adipose, F SD rat, Adipose",18700 ng·h/mL
same,AUC(0-t),"female, Sprague-Dawley, bladder, F SD rat, Bladder",18600 ng·h/mL
same,AUC(0-t),"female, Sprague-Dawley, spleen, F SD rat, Spleen",43400 ng·h/mL
same,Cmax,[7],4310 ng/mL
same,Tmax,[7],30 min
same,Cmax,[8],2650 ng/mL
same,Tmax,[8],30 min
same,AUC0-inf,[8],18600 ng·h/mL
same,Cmax,[9],12500 ng/mL
same,Tmax,[9],30 min
same,Cmax,[10],24800 ng/mL
same,Tmax,[10],30 min
same,AUC0-inf,[10],130000 ng·h/mL
same,Tmax,"female, F SD rat, Liver",30 min
same,AUC0-inf,"female, F SD rat, Liver",35900 ng·h/mL
same,Cmax,"female, F SD rat, Lung",3070 ng/mL
same,Tmax,"female, F SD rat, Lung",30 min
same,AUC0-inf,"female, F SD rat, Lung",29500 ng·h/mL
same,Cmax,"female, F SD rat, Ovaries",1940 ng/mL
same,Tmax,"female, F SD rat, Ovaries",30 min
same,Cmax,"female, F SD rat, Plasma",625 ng/mL
same,Tmax,"female, F SD rat, Plasma",480 min
same,AUC0-inf,"female, F SD rat, Plasma",4140 ng·h/mL
same,Cmax,"female, F SD rat, Skin",1180 ng/mL
same,Tmax,"female, F SD rat, Skin",30 min
same,AUC0-inf,"female, F SD rat, Skin",8450 ng·h/mL
same,AUC(0-t),"male, SD, liver, M SD rat, Liver",14700 ng·h/mL
same,AUC(0-t),"male, SD, lung, M SD rat, Lung",18200 ng·h/mL
same,AUC(0-t),"male, SD, skin, M SD rat, Skin",7820 ng·h/mL
same,Cmax,[11],7320 ng/mL
same,Tmax,[11],480 min
same,AUC(0-t),"male, Sprague-Dawley (SD), bone marrow, M SD rat, Bone Marrow",19600 ng·h/mL
same,AUC(0-t),"male, Sprague-Dawley (SD), brain, M SD rat, Brain",273 ng·h/mL
same,AUC(0-t),"male, Sprague-Dawley (SD), heart, M SD rat, Heart",2880 ng·h/mL
same,AUC(0-t),"male, Sprague-Dawley (SD), kidney, M SD rat, Kidney",32600 ng·h/mL
same,Tmax,"male, Sprague-Dawley (SD), M SD rat, Bone Marrow",30 min
same,Cmax,[12],68.9 ng/mL
same,Tmax,[12],30 min
same,Cmax,[13],535 ng/mL
same,Tmax,[13],156 min
same,Cmax,[14],2520 ng/mL
same,Tmax,[14],30 min
same,Cmax,[15],9620 ng/mL
same,Tmax,[15],30 min
same,AUC0-inf,[15],32600 ng·h/mL
same,Cmax,"male, Sprague-Dawley (SD), M SD rat, Liver",6340 ng/mL
same,AUC(0-t),"male, Sprague-Dawley, adipose, M SD rat, Adipose",12200 ng·h/mL
same,AUC(0-t),"male, Sprague-Dawley, bladder, M SD rat, Bladder",36200 ng·h/mL
same,AUC(0-t),"male, Sprague-Dawley, spleen, M SD rat, Spleen",25700 ng·h/mL
same,AUC(0-t),"male, Sprague-Dawley, testis, M SD rat, Testis",5090 ng·h/mL
same,Cmax,[16],3900 ng/mL
same,Tmax,[16],30 min
same,Cmax,[17],6820 ng/mL
same,Tmax,[17],33.6 min
same,AUC0-inf,[17],36300 ng·h/mL
same,Tmax,[18],30 min
same,AUC0-inf,[18],8020 ng·h/mL
same,Cmax,[19],6860 ng/mL
same,Tmax,[19],30 min
same,Cmax,[20],318 ng/mL
same,Tmax,[20],480 min
same,Cmax,[21],28900 ng/mL
same,Tmax,[21],30 min
same,Cmax,"male, M SD rat, Bone Marrow",4530 ng/mL
same,Tmax,"male, M SD rat, Liver",30 min
same,Cmax,"male, M SD rat, Lung",4410 ng/mL
same,Tmax,"male, M SD rat, Lung",30 min
same,Cmax,"male, M SD rat, Plasma",509 ng/mL
same,Tmax,"male, M SD rat, Plasma",180 min
same,AUC0-inf,"male, M SD rat, Plasma",2680 ng·h/mL
same,Cmax,"male, M SD rat, Skin",1460 ng/mL
